# Earlier results as cited in US20190365933A1, “SOLVENT-FREE GADOLINIUM CONTRAST AGENTS” (Inventure, LLC, priority 2016, published 2019).
# Like-named read-outs stand apart in the source and are kept apart here.
"Conditional stability constant at pH 7.4 (log Keff) (complex of gadolinium with the named ligand, log value)","Thermodynamic stability constants pH 14 (log KGdL) (complex of gadolinium with the named ligand, pH 14, ligand entirely deprotonated, log value)",Conditional stability constant at pH 7.4 (log Keff),Thermodynamic stability constants pH 14 (log KGdL) (pH 14),Structure (SMILES)
17.2,24.7,,,"O=C(O)CN1CCN(CC(=O)O)CCN(CC(=O)O)CCN(CC(=O)O)CC1 [DOTA, 1,4,7,10-tetraazacyclododecane-1,4,7,10-tetraacetic acid]"
,,12.7,14.54,O=C(O)CNC(=O)CN1CCN(CC(=O)NCC(=O)O)CCN(CC(=O)NCC(=O)O)CCN(CC(=O)NCC(=O)O)CC1 [DOTA-(gly)4]
